Data set [1] is described as follows: Spontaneous Raman / hyperspectral SRS spectroscopy of probes and uncaged alkynes. It counts as physicochemical. To be noted: for alkyne Raman peak / SRS channel after uncaging: organelle probes after UV / 405 nm uncaging. An excerpt:
(§1) An integrated laser (picoEMERALD, Applied Physics and Electronics, Inc.) was used as a light source for both pump and Stokes beams. It produces 2 ps pump (tunable from 770 nm - 990 nm, bandwidth 0.5 nm, spectral bandwidth ~ 7 cm-1 ) and Stokes (1031.2 nm, spectral bandwidth 10 cm-1 ) beams with 80 MHz repetition rate. Stokes beam is modulated at 20 MHz by an internal electro-optic modulator. The spatially and temporally overlapped pump and Stokes beams are introduced into an inverted multiphoton laser scanning microscopy (FV3000, Olympus), and then focused onto the sample by a 25X water objective (XLPLN25XWMP, 1.05 N.A., Olympus). Transmitted pump and Stokes beams are collected by a high N.A. condenser lens (oil immersion, 1.4 N.A., Olympus) and pass through a bandpass filter (893/209 BrightLine, 25 mm, AVR Optics) to filter out Stokes beam. A large area (10×10 mm) Si photodiode (S3590-09, Hamamatsu) is used to measure the remaining pump beam intensity. 64 V DC voltage was used on the photodiode to increase saturation threshold and reduce response time. The output current is terminated by a 50 Ω terminator and pre-filtered by an 19.2-23.6-MHz band-pass filter (BBP-21.4+, Mini-Circuits) to reduce laser and scanning noise. The signal is then demodulated by a lock-in amplifier (SR844, Stanford Research Systems) at the modulation frequency. The in-phase X output is fed back to the Olympus IO interface box (FV30-ANALOG) of the microscope. Image acquisition speed is limited by 30 µs time constant set for the lock-in amplifier. Correspondingly, we use 80 µs pixel dwell time, which gives a speed of 8.5 s frame-1 for a 320-by-320-pixel field of view. Laser powers are monitored through image acquisition by an internal power meter and power fluctuation are controlled within 5% by the laser system. 16-bit grey scale images are acquired by Fluoview software. SRS spectra were acquired by fixing the Stokes beam at 1031.2 nm and scanning the pump beam through the designated wavelength range point by point. 10 mM EdU (H2O) sample was used as a standard to give RIE of different probes. Fluorescence images were collected using the same Olympus FV3000 confocal microscope with CW laser excitation (405, 488, 561 and 640 nm, Coherent OBIS LX laser) and standard bandpass filter sets. The correlation coefficients (Pearson’s R value) between SRS images and fluorescence images were calculated using ‘Coloc 2’ tool of ImageJ.
To perform spontaneous Raman spectroscopy, spontaneous Raman spectra were acquired using an upright confocal Raman spectrometer (Horiba Raman microscope; Xplora plus). A 532 nm YAG laser is used to illuminate the sample with a power of 12 mW on sample through a 100 x, N.A. 0.9 objective (MPLANN; Olympus) with 100 µm slit and 500 µm hole. Spectro/Raman shift center was set to be 2000.04 cm-1 . With a 1200 grating, Raman shift ranges from 690.81 cm-1 to 3141.49 cm-1 was acquired to cover whole biological relevant Raman peaks. The acquired spectra were processed by the LabSpec 6 software for baseline correction.
Cyclopropenone caging has been previously adopted for photoactivation and subsequent biorthogonal labeling of fluorophores in fluorescence microscopy. […] Herein the alkyne Raman signal generation from photo-DIBO light-activation was first measured (FIG. 1A). […] Compared to 5-ethynyl-2′-deoxyuridine (EdU), the well-adopted benchmark for Raman intensity quantification, the relative Raman intensity to EdU (RIE) of the strained alkyne DIBO is only 1.8 (Table 1). […] Given this, it is reasoned that diphenylcyclopropenone (i.e. cyclopropenone-caged 1-yne, 1-cyclo, 1, FIG. 1A) should be a better photoactivatable Raman scaffold with higher Raman sensitivity after uncaging. Indeed, UV-uncaging of 1-cyclo (1), which started from a similarly weak Raman peak at 1860 cm^-1 from photo-DIBO, produced an intense sharp peak for 1-yne (2) at 2226 cm^-1 (FIG. 1B, dashed black vs solid blue spectra) with an improved RIE values to about 4

A short description of data set [2]: UV-Vis absorption spectra. To be noted: 20 uM in DMSO. The class given is physicochemical. On the procedure: UV-Vis absorption spectra were recorded on a Varian Cary 50 UV-Vis Spectrophotometer (Agilent).
Data set [3] in a line: Photoactivation (UV-uncaging) monitored by time-series spontaneous Raman spectra. The class given is physicochemical. To be noted: 365 nm illumination (15 mW/cm^2); increase of alkyne peak 2226 cm^-1. On the procedure:
The 365 nm UV light used to activate cyclopropenones comes from a UV handlamp (Analytik Jena UVP EL Series Lamp, UVLS-24, 4 Watt, 2 UV 254/365 nm, typically used for TLC monitoring in organic synthesis). The power of 365 nm UV of this handlamp was measured to be 15 mW/cm2 on samples.
Next, the photo-uncaging kinetics for both 1-cyclo (1) and 2-cyclo (3) were compared. […] With 365 nm lamp illumination, the characteristic peaks of cyclopropenones (~1860 cm^-1) continue to drop while the alkyne peaks (2226 cm^-1) gradually increase for both molecules (FIG. 1D). […] The progression of the UV-activation reactions could also be confirmed by the change in the corresponding absorption spectra (FIG. 6).

Data set [4] has as its system live HeLa cells. Kind of data set: SRS imaging of live HeLa cells incubated with unmethylated probes before and after 405 nm illumination. The class given is cell-based. Particulars: 20 µM, 30 minutes of labeling; 2226 cm^-1 channel after 405 nm. The protocol: FIG. 7 provides exemplary results from SRS imaging of live HeLa cells incubated with 1-cyclo (1, 20 µM, 30 minutes of labeling, top) and Cyclo-Mito (7, 20 µM, 30 minutes of labeling, bottom) at the CH3 (2940 cm^-1) channel, and the expected uncaged alkyne channel (2226 cm^-1) before and after 405 nm illumination. Scale bar: 10 µm.
An integrated laser (picoEMERALD, Applied Physics and Electronics, Inc.) was used as a light source for both pump and Stokes beams. It produces 2 ps pump (tunable from 770 nm - 990 nm, bandwidth 0.5 nm, spectral bandwidth ~ 7 cm-1 ) and Stokes (1031.2 nm, spectral bandwidth 10 cm-1 ) beams with 80 MHz repetition rate. Stokes beam is modulated at 20 MHz by an internal electro-optic modulator. […] Laser powers are monitored through image acquisition by an internal power meter and power fluctuation are controlled within 5% by the laser system. […] Fluorescence images were collected using the same Olympus FV3000 confocal microscope with CW laser excitation (405, 488, 561 and 640 nm, Coherent OBIS LX laser) and standard bandpass filter sets. The correlation coefficients (Pearson’s R value) between SRS images and fluorescence images were calculated using ‘Coloc 2’ tool of ImageJ.

For data set [5] the following is noted: reported value; cited from earlier work.
Data set [6] is described as follows: (HP)LC-MS for assessing the stability of cyclopropenone probes in physiological condition. It counts as physicochemical. To be noted: 10 mM cysteine (PBS), 37° C., HPLC trace. On the procedure: The assessed probe was first dissolved in DMSO and later diluted in 10 mM cysteine (Sigma, 168149, dissolved in PBS) solution or DMEM (Corning, 35-015-CV) medium. Analytical HPLC coupled with mass spectrometry (LC-MS) was performed on Agilent 1290 infinity LC system using ZORBAX RRHD Eclipse Plus C18, 95 Å, 2.1 x 50 mm, 1.8 µm column with Agilent 6140 Series Quadrupole LCMS / LC-MS / MSD / Mass Spectrometer System. The mobile phase is water (0.1% AcOH) and acetonitrile with running method of gradient 5%-95% acetonitrile (1 ml/min, 4 min for total running time). The mass spectrometry detection region ranges from 100 to 800 AMU. The data shown in the main figures and supplementary figures are the absorption (280.8 nm) intensity traces.
It was hypothesized that this was likely because the cyclopropenone structures are susceptible to nucleophilic attack, leading to ring-opened α,β-unsaturated acids derivatives. Cysteines, glutathione, and other biological thiols are strong nucleophiles and could easily deactivate cyclopropenones. The stability of 1-cyclo (1) in 10 mM cysteine phosphate-buffered saline (PBS) at 37° C. was therefore tested, mimicking physiological conditions.

A further data set relates to mitochondria. Kind of data set: Live-cell photo-uncaging mitochondria imaging, SRS/fluorescence co-localization. The class given is cell-based. To be noted: live HeLa cells.
Text: as §1
Mitochondria imaging: Cells were incubated in 16 µM Me-Mito (12) or Me-Mito^13C (16) with complete DMEM medium for 40 minutes in the incubator. Cells were washed with PBS three times before imaging. For colocalization, 80 nM MitoTracker™ Deep Red (Invitrogen, M22426) was used to stain cells for 25 minutes. […]

Data set [7] has as its system live HeLa cells. Kind of data set: Time lapse (pulse-chase) imaging of retained signal after photoactivation. The class given is cell-based. To be noted: after 2 hours of chasing, 0 h = 100%. On the procedure:
FIG. 20 illustrates labeling signal and specificity evaluation during 2 hours of time lapse imaging in photoactivated Me-Mito-^13C (16) labeled live HeLa cells. Panel (a) is a plot showing quantification of retained signals after 1 hour and 2 hours imaging. The values of signals at 0 h were used as 100% signal reference. n = 6 independent experiments. Data shown as mean ± SEM. Panel (b) includes a series of representative time lapse imaging. The magnified images of the bottom cell (indicated by the dashed white box) are shown. Scale bar: 10 µm. The high mitochondria-labeling specificity of the mitochondria probe was confirmed for relatively long-term pulse-chase tracking applications. More than 85% of activated Me-Mito-^13C (16) signals retained in live HeLa cells after 2 hours of chasing ([…]) with well-maintained mitochondria labeling pattern (FIG. 20, panel b). In live HeLa cells labeled with Me-Mito-^13C (16), 405 nm laser was first used to pulse-activate the selected region of a single cell for 20 seconds (FIG. 5A, CH3, the white dashed box indicates the activation area). Immediately after photoactivation, SRS imaging at 2125 cm^-1 well resolved the distribution of mitochondria only from this activated subcellular region (FIG. 5A, Mito0 min, Pulse), implying high spatial selectivity. […]

The mark [8] stands for this setting: SRS vs Mitotracker deep red, Fl/2225 cm^-1 channel.

The values below come from US20230280275A1, “PHOTOACTIVATABLE VIBRATIONAL PROBES AND USES THEREOF” (California Institute of Technology, priority 2021, published 2023).

`O=c1c(-c2ccccc2)c1-c1ccccc1` [1-cyclo (1), diphenylcyclopropenone]: the “RIE (relative Raman intensity to EdU)” value in data set [1] (10 mM EdU (H2O) as standard) is on record as 0.37. Also, in data set [1] (cell silent region, model systems), the “Raman Peak” value came to 1860 cm⁻¹. In data set [2], this compound showed an Abs of 302 nm and a εabs of 28600 M⁻¹ cm⁻¹. In data set [3], this compound registered an uncaging kinetics k of 0.0044 s⁻¹. For the same compound, in the data set on live HeLa cells [4], the “uncaging signals in labeled live cells” value is “did not produce any observable uncaging signals”. Moreover, the quantum yield in data set [5] is given as 0.78.
`Cc1cc(C)c(-c2c(-c3c(C)cc(OCCC[P+](c4ccccc4)(c4ccccc4)c4ccccc4)cc3C)c2=O)c(C)c1` [Me-Mito (12)]: the “alkyne Raman peak / SRS channel after uncaging” value in data set [1] is 2205 cm⁻¹. The “time stable to cysteine” value in data set [6] was “over 48 hours”. Further, in the data set with mitochondria (setting [8]), the “correlation coefficient (Pearson's R value), set 1” value came to 0.85; the “correlation coefficient (Pearson's R value), set 2” value is recorded as 0.82; the “correlation coefficient (Pearson's R value), set 3” value was 0.88. Moreover, the “SRS imaging at the alkyne channel after photoactivation” value with mitochondria (two minutes of 405 nm laser illumination, 2205 cm^-1) is “bright mitochondria pattern”.
On to `Cc1cc(C)c(-[13c]2c(=O)[13c]2-c2c(C)cc(OCCC[P+](c3ccccc3)(c3ccccc3)c3ccccc3)cc2C)c(C)c1.[Br-]` [Me-Mito-^13C (16)], for which the “alkyne Raman peak / SRS channel after uncaging” value in data set [1] was determined as 2125 cm⁻¹. Also, in the data set on live HeLa cells [7], the activated signals retained result is recorded as “More than 85%”.
